What was measured:
Experiment in all cases: CTG-3D luminescence at 96 h relative to day-0 seeding control (ratio to day 0); higher = more growth / less cytotoxicity; PDxO 3D drug screen (set 2), 96 h, CTG-3D normalised to day-0 seeding control.
HCI-002 = system: HCI-002 (organoid from a triple-negative breast cancer xenograft)
HCI-015 = system: HCI-015 (organoid from a triple-negative breast cancer xenograft)
HCI-003.E2 = system: HCI-003.E2 (organoid from an ER-positive breast cancer xenograft)
HCI-027 = system: HCI-027 (organoid from a triple-negative breast cancer xenograft)
HCI-011.E2 = system: HCI-011.E2 (organoid from an ER-positive breast cancer xenograft)
HCI-012 = system: HCI-012 (organoid from a breast cancer xenograft)

CO[C@H]1C[C@@H]2CC[C@@H](C)[C@@](O)(O2)C(=O)C(=O)N2CCCC[C@H]2C(=O)O[C@H]([C@H](C)C[C@@H]2CC[C@@H](O)[C@H](OC)C2)CC(=O)[C@H](C)/C=C(\C)[C@@H](O)[C@@H](OC)C(=O)[C@H](C)C[C@H](C)/C=C/C=C/C=C/1C [rapamycin]
CTG-3D luminescence at 96 h
Settings | 12.5 pM | 0.00025 µM | 0.005 µM | 0.1 µM | 1 µM | 10 µM | 100 µM | 625 fM
HCI-002, days in culture: 127 | 1.89 | 1.99 | 1.94 | 2.24 | 1.85 | 2.01 | 0.0264 | 2.17
HCI-002, days in culture: 155 | 3.33 | 3.32 | 3.3 | 3.82 | 2.76 | 2.89 | 0.0206 | 3.05
HCI-002, days in culture: 168 | 2.98 | 2.48 | 2.66 | 2.27 | 2.64 | 2.56 | 0.0148 | 3.57
HCI-011.E2, days in culture: 74 | 2.21 | 1.44 | 1.16 | 0.949 | 0.784 | 0.995 | 0.0116 | 2.1
HCI-012, days in culture: 214 | 2.2 | 1.93 | 1.66 | 1.12 | 1.43 | 1.48 | 0.0123 | 1.33
HCI-012, days in culture: 243 | 1.69 | 1.66 | 1.47 | 1.74 | 1.31 | 1.75 | 0.0176 | 1.93
HCI-012, days in culture: 256 | 2.19 | 1.95 | 1.54 | 1.81 | 1.91 | 1.19 | 0.0101 | 2.38
HCI-012, days in culture: 284 | 1.84 | 2.05 | 1.19 | 1.44 | 1.29 | 1.76 | 0.0121 | 3.62
HCI-015, days in culture: 333 | 1.29 | 0.897 | 0.593 | 1.1 | 0.612 | 0.447 | 0.0119 | 1.04
HCI-015, days in culture: 355 | 1.27 | 2.02 | 0.979 | 1.55 | 1.15 | 1.05 | 0.0149 | 1.06
HCI-015, days in culture: 369 | 1.79 | 1.03 | 1.2 | 1.39 | 1.48 | 0.955 | 0.00715 | 1.62
HCI-027, days in culture: 145 | 1.48 | 1.37 | 1.25 | 1.15 | 1.16 | 0.781 | 0.00647 | 1.5
HCI-027, days in culture: 158 | 1.19 | 1.63 | 1.42 | 2.35 | 1.1 | 2.43 | 0.0139 | 4.51
HCI-027, days in culture: 164 | 3.14 | 1.63 | 2.5 | 1.4 | 1.59 | 1.86 | 0.0163 | 1.82
HCI-027, days in culture: 176 | 3.28 | 2.48 | 0.934 | 2.11 | 1.69 | 1.25 | 0.00482 | 2.21
HCI-027, days in culture: 186 | 1.07 | 0.887 | 1.74 | 1.07 | 0.381 | 1.97 | 0.00722 | 0.992

CTG-3D luminescence at 96 h
Settings | 12.5 pM | 0.00025 µM | 0.005 µM | 0.1 µM | 1 µM | 10 µM | 100 µM | 625 fM
HCI-003.E2 | 1.08 | 1.04 | 0.947 | 0.798 | 1.03 | 0.994 | 0.0195 | 1.32
HCI-011.E2 | 0.71 | 0.7694 | 0.724 | 0.909 | 0.688 | 1.05 | 0.0136 | 1.05

O=C(c1cc(Cc2n[nH]c(=O)c3ccccc23)ccc1F)N1CCN(C(=O)C2CC2)CC1 [olaparib]
CTG-3D luminescence at 96 h
Settings | 12.5 pM | 0.00025 µM | 0.005 µM | 0.1 µM | 1 µM | 10 µM | 100 µM | 625 fM
HCI-002, days in culture: 127 | 2.26 | 2.88 | 2.92 | 2.97 | 2.45 | 2.59 | 2.23 | 2.54
HCI-002, days in culture: 155 | 4.7 | 4.7 | 5.6 | 6.16 | 4.47 | 2.8 | 2.34 | 4.33
HCI-002, days in culture: 168 | 3.4 | 3.26 | 4.03 | 3.35 | 3.14 | 2.04 | 1.7 | 3.55
HCI-011.E2, days in culture: 74 | 2.53 | 2.44 | 2.19 | 2.22 | 1.57 | 0.94 | 0.157 | 2.66
HCI-012, days in culture: 214 | 2.61 | 3.14 | 2.09 | 1.89 | 1.68 | 0.943 | 0.704 | 2.64
HCI-012, days in culture: 243 | 1.73 | 2.04 | 1.86 | 2.25 | 1.49 | 1.74 | 1.2 | 2.06
HCI-012, days in culture: 256 | 2.25 | 1.86 | 2.13 | 3.12 | 2.12 | 1.26 | 1.08 | 2.1
HCI-012, days in culture: 284 | 1.75 | 1.95 | 1.42 | 2.17 | 1.42 | 1.42 | 0.15 | 3
HCI-015, days in culture: 333 | 1.88 | 1.11 | 1.59 | 1.95 | 0.972 | 0.511 | 0.241 | 1.03
HCI-015, days in culture: 355 | 2.43 | 3.28 | 1.71 | 1.6 | 0.993 | 0.516 | 0.951 | 2.1
HCI-015, days in culture: 369 | 2.43 | 1.41 | 2.36 | 1.91 | 1.9 | 1.05 | 1.24 | 2.02
HCI-027, days in culture: 145 | 1.79 | 3.31 | 2.66 | 1.56 | 1.71 | 2.13 | 0.976 | 1.89
HCI-027, days in culture: 158 | 1.27 | 3.16 | 2.16 | 2.6 | 1.87 | 3.12 | 1.79 | 3.17
HCI-027, days in culture: 164 | 4.1 | 1.37 | 2.13 | 2.08 | 1.58 | 0.874 | 0.555 | 2.58
HCI-027, days in culture: 176 | 3.94 | 1.97 | 1.54 | 1.61 | 2.6 | 0.771 | 0.452 | 1.65
HCI-027, days in culture: 186 | 0.87 | 1.38 | 2.3 | 3.57 | 1.26 | 1.58 | 0.34 | 3.34

CTG-3D luminescence at 96 h
Settings | 12.5 pM | 0.00025 µM | 0.005 µM | 0.1 µM | 1 µM | 10 µM | 100 µM | 625 fM
HCI-003.E2 | 2.72 | 2.74 | 2.72 | 2.75 | 2.24 | 1.27 | 0.0215 | 2.79
HCI-011.E2 | 1.58 | 1.55 | 1.41 | 1.95 | 1.6 | 1.14 | 0.266 | 2.1

Source: the supplement of paper PMC8882468
